Measurements from US8633164B2, “Antimicrobial peptides” (priority 2008, dated 2014).
≈ marks a conversion by molar mass, not a printed value. Residues, ends and D or L forms follow the SMILES beside them. No end group written: not given here.

Columns and labels:
[1] = test system: Stenotrophomonas Maltophilia 3998-00 CUN; format: cell-based
Experimental: (§1) The antibacterial activity of the peptides was determined by microdilution susceptibility assays performed in Mueller-Hinton broth. Susceptibility testing was performed following the recommendations of the Clinical Standards Institute (CLSI, formerly NCCLS) [Standards, 2000]. Peptides (2 mg/ml in 4 mM HEPES, pH 7.2) were two-fold diluted in Mueller-Hinton Broth in 96-well microtitre plates to obtain concentrations from 512 to 0.25 μg/ml in a volume of 100 μl. Bacteria were grown on Mueller-Hinton agar plates for 1 to 3 days depending on the growth rate of the bacteria, suspended in 2 ml of 0.9% saline and adjusted to 10^8 CFU/ml. The bacterial suspension was diluted 100-fold in Mueller-Hinton broth, and 0.1 ml of this new dilution (10^5 CFU) was added to the peptide dilutions. The microtiter plates were incubated at 37° C. for 24 h. The minimal inhibitory concentration (MIC) of each peptide against a given bacterial strain was regarded as the minimal concentration of the peptide which prevents the growth of that organism 24 h after inoculation. The bactericidal effect of the peptides was determined, after 24 h incubation at 37° C., by plating 10 μl of the content of non-cloudy wells onto Mueller-Hinton agar plates. Plates were incubated at 37° C. for 1 to 5 days, and a viable count was performed. The minimal bactericidal concentration (MBC) of each peptide for a given bacterial strain was regarded as the minimal concentration of the peptide which kills 99.9% of the colony-forming units (CFU) present in the final inoculum.

[2] = test system: Acinetobacter baumanii ATCC 19606; format: cell-based
Experimental: as §1

[3] = test system: Staphylococcus aureus ATCC 25923; format: cell-based
Experimental: as §1

[4] = test system: Escherichia coli ATCC 25922; format: cell-based
Experimental: as §1

MRSA ATCC 43300 = format: cell-based, methicillin-resistant Staphylococcus aureus
Experimental: as §1

MRSA CUN 3792-99 = format: cell-based, methicillin-resistant Staphylococcus aureus
Experimental: as §1

LPS = assay: Animal model of endotoxicity (LPS/galactosamine endotoxic shock, mortality); format: in vivo, mice; details: mouse, LPS + galactosamine i.p., 150 μg peptide i.p.
Description: The wild-type LPS of E. coli ATCC 35218 and P. aeruginosa PAO1 were obtained from the aqueous phase of a water-phenol extract and purified by treatment with chaotropic agents and detergents.
Female ICR (CD-1) mice weighing 20-23 g were randomly distributed in experimental groups (n=16). Endotoxic shock was induced in the animals by coinoculation of LPS and galactosamine following the method of Galanos et al. Specifically, each animal received an intraperitoneal injection containing a mixture of 0.3 μg of LPS and 18 mg of galactosamine resuspended in 200 μl of endotoxin-free saline.
Immediately after LPS administration, animals were intraperitoneally inoculated with 150 μg of the test peptide resuspended in 150 μl of pyrogen-free saline containing 10% dimethylformamide as solubilizing agent. To facilitate the therapeutical action of the peptide, mice so treated were gently massaged at the site of inoculation for a few seconds. Animal mortality was monitored at 6 h and 12 h postinoculation and at daily intervals for 5 days.
In each independent experiment a group of animals received 150 μl of pyrogen-free saline containing 150 μg of polymyxin B, a lipopeptide with well known antiendotoxic properties, whereas another group was left untreated.
Results of animal mortality at all experimental time points were globally analyzed using the Kaplan-Meier survival analysis. When the survival plots were parallel, data were compared by the Log-Rank test, whereas for those plots that intersected the “Breslow-Gehan-Wilcoxon”. […]

HIV-1 isolate = assay: Anti-HIV action: inhibition of virus replication in T-cell line PM1; format: cell-based; details: 20 μg/ml peptide
Experimental: A T-cell line (PM1) was incubated with a HIV-1 isolate and the infected cells were cultivated in peptide-containing medium. After some days the number of viruses was determined as compared to untreated cells. The number of viruses is determined by the concentrations of the HIV-capsid in the supernatant. FIG. 8 depicts the anti-HIV action of the peptides Pep19-2, -4, 6, and 8 at peptide concentrations of 1, 5, 10, and 20 μg/ml.

[5] = test system: LPS-induced cytokine expression in human mononuclear cells; assay: Inhibition of LPS-induced cytokine secretion of human mononuclear cells; format: cell-based; details: comparison of Pep12, 17-1 and 19-1
Experimental: Human mononuclear cells (MNC): heparinized (20 IU/ml) blood obtained from healthy donors was mixed with an equal volume of Hank's balanced solution, layered over Ficoll, and centrifuged for 40 min (21° C., 500 g). The interphase layer of MNC was collected and washed twice in Hank's medium and then resuspended in RPMI 1640 supplemented with 2 mM L-glutamine, 100 U/ml penicillin, and 100 μg/ml streptomycin. MNC (200 μl/well; 5×10^6 cells/ml) were transferred into 96-well culture plates. Twenty microliters of a mixture containing LPS (100 ng/ml or 10 ng/ml) and Gra-pep (10:1 weight % excess) was added to each well. Supernatants were harvested after 4 h incubation at 37° C. under 5% CO2, and TNFα production was measured in a sandwich-ELISA. TNFα was determined in duplicate at two different dilutions and the values from two independent experiments were averaged.

Row | MIC [1] | MIC [2] | MIC [3] | MIC [4] | MIC (MRSA ATCC 43300) | MIC (MRSA CUN 3792-99) | Compound | MBC [3] | MBC [4] | Dead mice/number of mice, 24 h (LPS) | Dead mice/number of mice, 48 h (LPS) | Dead mice/number of mice, 72 h (LPS) | % inhibition of virus replication in a T-cell line (HIV-1 isolate) | Inhibition of LPS-induced cytokine production [5]
1 | 645 mg/L (≈ 263 µM) | 16 mg/L (≈ 6.53 µM) | >500 mg/L | >500 mg/L | 16 mg/L (≈ 6.53 µM) | 16 mg/L (≈ 6.53 µM) | N=C(N)NCCC[C@H](NC(=O)[C@H](Cc1ccc(O)cc1)NC(=O)[C@H](CCCCN)NC(=O)[C@H](CCCCN)NC(=O)CN)C(=O)N[C@@H](CCCNC(=N)N)C(=O)N[C@@H](Cc1ccccc1)C(=O)N[C@@H](Cc1c[nH]c2ccccc12)C(=O)N[C@@H](CCCCN)C(=O)N[C@@H](Cc1ccccc1)C(=O)N[C@@H](CCCCN)C(=O)NCC(=O)N[C@@H](CCCCN)C(=O)N[C@@H](Cc1c[nH]c2ccccc12)C(=O)N[C@@H](Cc1ccccc1)C(=O)N[C@@H](Cc1ccccc1)C(=O)N[C@@H](Cc1c[nH]c2ccccc12)C(=O)NCC(N)=O [Pep 19-7, GKKYRRFWKFKGKWFFWG] (H-GKKYRRFWKFKGKWFFWG-NH2) | >500 mg/L | >500 mg/L |  |  |  |  | 
2 |  |  |  |  |  |  | polymyxin B [PMB, reference compound] |  |  | 0/10 | 0/10 | 0/10 |  | 
3 | 1024 mg/L (≈ 385 µM) | 64 mg/L (≈ 24.1 µM) | >500 mg/L | >500 mg/L | 64 mg/L (≈ 24.1 µM) | 32 mg/L (≈ 12 µM) | CC(C)C[C@H](NC(=O)[C@H](Cc1c[nH]c2ccccc12)NC(=O)[C@H](CC(C)C)NC(=O)[C@H](CCCCN)NC(=O)[C@H](CCC(N)=O)NC(=O)[C@H](CCCCN)NC(=O)[C@H](CS)NC(=O)[C@H](CCCCN)NC(=O)[C@H](CC(C)C)NC(=O)[C@H](CCCCN)NC(=O)[C@H](Cc1ccccc1)NC(=O)[C@H](CCCNC(=N)N)NC(=O)[C@H](CCCNC(=N)N)NC(=O)[C@H](Cc1ccccc1)NC(=O)[C@H](CCCCN)NC(=O)[C@H](CCCCN)NC(=O)[C@H](CS)NC(=O)CN)C(=O)N[C@@H](Cc1c[nH]c2ccccc12)C(=O)N[C@@H](CS)C(=O)NCC(N)=O [Pep 19-6] (H-GCKKFRRFKLKCKQKLWLWCG-NH2) | >500 mg/L | >500 mg/L |  |  |  |  | 
4 |  |  |  |  |  |  | KKFRRLKWKYKGKFWFW (Synthetic antimicrobial peptide 1Pep17-1) [Pep 17-1] |  |  | 7/11 | 7/11 | 8/11 |  | 
5 | 32 mg/L (≈ 12.3 µM) | 16 mg/L (≈ 6.13 µM) | 15.6 mg/L (≈ 5.98 µM) |  | 16 mg/L (≈ 6.13 µM) | 16 mg/L (≈ 6.13 µM) | N=C(N)NCCC[C@H](NC(=O)[C@H](Cc1ccc(O)cc1)NC(=O)[C@H](CCCCN)NC(=O)[C@H](CCCCN)NC(=O)CN)C(=O)N[C@@H](CCCNC(=N)N)C(=O)N[C@@H](Cc1ccccc1)C(=O)N[C@@H](CCCNC(=N)N)C(=O)N[C@@H](Cc1c[nH]c2ccccc12)C(=O)N[C@@H](CCCCN)C(=O)N[C@@H](Cc1ccccc1)C(=O)N[C@@H](CCCCN)C(=O)NCC(=O)N[C@@H](CCCCN)C(=O)N[C@@H](Cc1c[nH]c2ccccc12)C(=O)N[C@@H](Cc1ccccc1)C(=O)N[C@@H](Cc1c[nH]c2ccccc12)C(=O)N[C@@H](Cc1ccccc1)C(=O)NCC(N)=O [Pep 19-4, GKKYRRFRWKFKGKWFWFG] (H-GKKYRRFRWKFKGKWFWFG-NH2) |  | 15.6 mg/L (≈ 5.98 µM) |  |  |  |  | 
6 |  |  |  |  |  |  | KKYRRFRWKFKGKFWFW (Synthetic antimicrobial peptide 1Pep17-2) [Pep 17-2] |  |  | 7/10 | 7/10 | 8/11 |  | 
7 | 32 mg/L (≈ 12.1 µM) | 16 mg/L (≈ 6.07 µM) |  |  | 8 mg/L (≈ 3.03 µM) | 8 mg/L (≈ 3.03 µM) | N=C(N)NCCC[C@H](NC(=O)CNC(=O)[C@H](CCCCN)NC(=O)[C@H](Cc1ccccc1)NC(=O)[C@H](CCCCN)NC(=O)[C@H](Cc1c[nH]c2ccccc12)NC(=O)[C@H](CCCNC(=N)N)NC(=O)[C@H](Cc1ccccc1)NC(=O)[C@H](CCCCN)NC(=O)[C@H](CCCCN)NC(=O)[C@H](Cc1ccc(O)cc1)NC(=O)[C@H](CCCNC(=N)N)NC(=O)[C@H](CCCNC(=N)N)NC(=O)CN)C(=O)N[C@@H](Cc1c[nH]c2ccccc12)C(=O)N[C@@H](Cc1ccccc1)C(=O)N[C@@H](Cc1c[nH]c2ccccc12)C(=O)N[C@@H](Cc1ccccc1)C(=O)NCC(N)=O [Pep 19-8, GRRYKKFRWKFKGRWFWFG] (H-GRRYKKFRWKFKGRWFWFG-NH2) |  |  |  |  |  | 99% | 
8 | 64 mg/L (≈ 24 µM) | 16 mg/L (≈ 6.01 µM) | 15.6 mg/L (≈ 5.86 µM) | 15.6 mg/L (≈ 5.86 µM) | 16 mg/L (≈ 6.01 µM) | 16 mg/L (≈ 6.01 µM) | N=C(N)NCCC[C@H](NC(=O)CNC(=O)[C@H](CCCNC(=N)N)NC(=O)[C@H](Cc1ccccc1)NC(=O)[C@H](CCCCN)NC(=O)[C@H](Cc1c[nH]c2ccccc12)NC(=O)[C@H](CCCNC(=N)N)NC(=O)[C@H](Cc1ccccc1)NC(=O)[C@H](CCCNC(=N)N)NC(=O)[C@H](CCCNC(=N)N)NC(=O)[C@H](Cc1ccc(O)cc1)NC(=O)[C@H](CCCCN)NC(=O)[C@H](CCCCN)NC(=O)CN)C(=O)N[C@@H](Cc1ccccc1)C(=O)N[C@@H](Cc1c[nH]c2ccccc12)C(=O)N[C@@H](Cc1ccccc1)C(=O)N[C@@H](Cc1c[nH]c2ccccc12)C(=O)NCC(N)=O [Pep 19-5, GKKYRRFRWKFRGRFWFWG] (H-GKKYRRFRWKFRGRFWFWG-NH2) |  | 15.6 mg/L (≈ 5.86 µM) |  |  |  | 99% | 
9 |  |  |  |  |  |  | GCKKFRRLKWKYKGKFWFWCG (GCKKFRRLKWKYKGKFWFWCG-NH2; cysteine pairing not given here) [Pep 19-1] |  |  |  |  |  |  | inhibits most strongly

Row | Compound | MIC [1] | MIC [2] | MIC [3] | MIC [4] | MIC (MRSA ATCC 43300) | MIC (MRSA CUN 3792-99) | MBC [3] | MBC [4] | Dead mice/number of mice, 24 h (LPS) | Dead mice/number of mice, 48 h (LPS) | Dead mice/number of mice, 72 h (LPS) | % inhibition of virus replication in a T-cell line (HIV-1 isolate) | Inhibition of LPS-induced cytokine production [5]
10 | N=C(N)NCCC[C@H](NC(=O)[C@H](Cc1ccc(O)cc1)NC(=O)[C@H](CCCCN)NC(=O)[C@H](CCCCN)NC(=O)[C@H](CS)NC(=O)CN)C(=O)N[C@@H](CCCNC(=N)N)C(=O)N[C@@H](Cc1ccccc1)C(=O)N[C@@H](CCCNC(=N)N)C(=O)N[C@@H](Cc1c[nH]c2ccccc12)C(=O)N[C@@H](CCCCN)C(=O)N[C@@H](Cc1ccccc1)C(=O)N[C@@H](CCCCN)C(=O)NCC(=O)N[C@@H](CCCCN)C(=O)N[C@@H](Cc1ccccc1)C(=O)N[C@@H](Cc1c[nH]c2ccccc12)C(=O)N[C@@H](Cc1ccccc1)C(=O)N[C@@H](Cc1c[nH]c2ccccc12)C(=O)N[C@@H](CS)C(=O)NCC(N)=O [Pep 19-2] (H-GCKKYRRFRWKFKGKFWFWCG-NH2) | 512 mg/L (≈ 182 µM) | 64 mg/L (≈ 22.7 µM) | 128 mg/L (≈ 45.5 µM) | 128 mg/L (≈ 45.5 µM) | 128 mg/L (≈ 45.5 µM) | 1024 mg/L (≈ 364 µM) | 512 mg/L (≈ 182 µM) | 512 mg/L (≈ 182 µM) | 0/10 | 0/10 | 0/10 |  | 
